Broadly, the EC50 is the concentration needed to bring the measured effect to its halfway point. By Emax is commonly meant the maximal effect, on the per cent scale that the assay sets.

Where two headings read alike, the source gives them in different places.

These results are taken from patent US20250295798A1, “LIGAND-DRUG CONJUGATE OF EXATECAN ANALOGUE, AND MEDICAL USE THEREOF” (BeiGene Switzerland GmbH, priority 2022, published 2025).

Common to all, as to type: cell-based, human
The subject of one assay is MDA-MB-453. Put plainly: Compounds cellular killing in MDA-MB-453. Conditions: for EC50 / Emax: Homo sapiens. On the procedure: Seeding cells MDA-MB-453 (2E3/well) into 96-well plate (Greiner: 655090), 100 ul/well. Incubation at 37° C., 5% CO2, overnight.
Adding the fresh growth-medium containing the varying concentrations of compounds, 50 ul/well.
Incubation at 37° C., 5% CO2, 6 days.
The cell viability detected by Cell Titer-Glo (Promega, G7573). Add 70 µL/well of CellTiter-Glo® Reagent in each well.
Allow the plates to incubate at room temperature for 10 minutes to stabilize luminescent signal.
Analyze with Microplate Reader.

The subject of the next assay is A375. In words: Compounds cellular killing in A375. Conditions: Homo sapiens, A-375; A375, 6 days, Cell Titer-Glo. Put shortly: (§1)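 A375 (1E3/well) or Calu-6 (2E3/well) cells were seeded overnight, then exposed to varying compound concentrations for 6 days at 37 °C, 5% CO2. Viability was read by CellTiter-Glo luminescence.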
A general note: In ATP-based viability assays light output follows the ATP content of the culture.

The next assay has as its system Calu-6. In words: Compounds cellular killing in Calu-6. Conditions: Homo sapiens, Calu-6, […], Calu-6, 6 days, Cell Titer-Glo. Put shortly: as §1

For the compound `CC[C@@]1(O)C(=O)OCc2c1cc1n(c2=O)Cc2c-1nc1cc(F)c(C)c3c1c2[C@@H](N1CCN(C)CC1)CC3` [Example 1-7, (1S,9S)-9-ethyl-5-fluoro-9-hydroxy-4-methyl-1-(4-methylpiperazin-1-yl)-1,2,3,9,12,15-hexahydro-10H,13H-benzo[de]pyrano[3′,4′:6,7]indolizino[1,2-b]quinoline-10,13-dione], in the assay on MDA-MB-453 (MDA-MB-453, […]), the EC50 was 1.2 nM and the Emax came out at 96.8%. Moreover, in the assay with MDA-MB-453 (MDA-MB-453, FIG. 1), the “killing activity compared with 1-B” value is given as “comparable killing activity to 1-B”.
For the compound `CC[C@@]1(O)C(=O)OCc2c1cc1n(c2=O)Cc2c-1nc1cc(F)c(C)c3c1c2[C@@H](N)CC3` [Example 1-B, reference compound], the EC50 in the assay on MDA-MB-453 (MDA-MB-453, 6 days, Cell Titer-Glo, read-out: EC50) is 0.9 nM. Further, the maximal effect (Emax) in the assay on MDA-MB-453 (MDA-MB-453, 6 days, Cell Titer-Glo, read-out: Emax (%)) is 99.4%; with A375, 100%; in the assay with Calu-6, 98.4%.
